Results reported in patent US8173360B2, “Cell death inhibitor” (Takeda Pharmaceutical Company Limited, priority 2002, dated 2012).

Tests used:
[1] = test system: primary cardiomyocytes derived from rat neonates; experiment: Inhibition of serum depletion-induced myocardial cell death (WST-8 viable cell count); format: cell-based
From the text: Neonates (within one day after birth) were obtained from pregnant Wistar rats purchased from Charles River Japan, Inc. and anesthetized with ether. After sterilization with 70% ethanol, the heart was removed with forceps. After washing with phosphate buffered saline (manufactured by Takara Co., Ltd., T900), the heart removed was minced with surgical scissors. The pieces of tissue were washed 4 or 5 times with phosphate buffered saline to remove most of non-cardiomyocytes derived from blood. To the pieces of tissue corresponding to 10 neonates, 5 ml of an enzyme solution [which is a solution of trypsin (1.25 mg) (manufactured by Difco) and collagenase (0.25 mg) (manufactured by Sigma) in phosphate buffer (1 ml)] was added. The mixture was stirred for 15 minutes with a stirrer while maintaining at 37° C. After 2.5 ml of the enzyme solution was replenished, the mixture was stirred for further 15 minutes, and this procedure was repeated twice. Subsequently, Medium 199 (manufactured by Gibco) containing 10% fetal cow serum (manufactured Biowicker, Inc.) was added to the mixture in a half volume of the enzyme solution to terminate the enzymatic reaction. After filtering through a cell strainer (manufactured by Falcon), the mixture was centrifuged at 400×g for 5 minutes to collect the cells.
The cells were then recovered, filtered through a cell strainer and centrifuged at 400×g for 5 minutes to collect primary cardiomyocytes derived from rat neonates.
Next, the primary cardiomyocytes derived from rat neonates (corresponding 10 neonates) were suspended in 2 ml of a hypotonic solution [solution obtained by dissolving NH4Cl (8.29 g), KHCO3 (1.0 g) and EDTA/2Na (ethylenediaminetetraacetic acid disodium; manufactured by Dojin Chemical Laboratory) (37 mg) in water (1 L)]. The suspension was allowed to stand for 3 minutes to disrupt erythrocytes. To the suspension 10 ml of Medium 199 containing 10% fetal cow serum was added, and the mixture was centrifuged at 400×g for 5 minutes to collect the primary cardiomyocytes derived from rat neonates. […] An aliquot of the cardiomyocytes suspension obtained was taken out and 0.3% trypan blue was added thereto. The mixture was gently stirred and the count of cardiomyocytes was counted with a hemocytometer.
Incubation was continued for further 4 days to induce cell death. […]
The mean value (±SD) in the minimum effective concentration of Compound 1 required for inhibiting the cell death was 0.015±0.011 μM. The concentration of Compound 1 required for increasing the mean cell count by 30% when compared to the cell count without the addition of Compound 1 was determined to be the minimum effective concentration. […]

[2] = test system: primary cardiomyocytes derived from rat neonates; settings: simvastatin 0.3 μM or atorvastatin 1 μM, 3 days
Procedure: The primary cardiomyocytes derived from rat neonates obtained in EXPERIMENTAL EXAMPLE 2 were suspended in Medium 199 containing 10% fetal cow serum in 6×10^5 cells/ml, and the suspension was seeded on a 96-well plate in 0.1 mlwell, followed by incubation for a day in a CO2 incubator set at 37° C. and 5% CO2. After stirring with a micromixer (manufactured by Taiyo Kagaku Kogyo Co., Ltd.), the medium was replaced 3 times with serum-free Medium 199 to remove serum. […] Thereafter, fetal cow serum was added thereto to become 10%. After further incubation in a CO2 incubator set at 37° C. and 5% CO2 for about 17 hours, the viable cell count was determined using a cell count assay kit (manufactured by Dojin Chemical Laboratory) in which WST-8 was used as a chromogen, thereby to examine the inhibitory activity of myocardial cell death induced by the statin. The experiment described above was carried out independently in 3 runs. The viable cell count in each of the experimental groups was named the mean value (±SD) of the viable cell counts in each experimental group, when the viable cell count in the group with no statin added was made 1.

[3] = test system: Human normal articular chondrocytes; experiment: Inhibitory activity against cell death of human articular chondrocytes induced by NO (MTT); format: cell-based; settings: for Cell Death Inhibition Rate: 1.5 mM sodium nitroprusside 5 hours, mean ±SD
Procedure: Human normal articular chondrocytes (Clonetics, Inc.) were proliferated in a growth medium for articular chondrocytes (CGM, Clonetics, Inc.) in monolayer culture. Then, the cells were suspended in 1.2% alginate-containing 155 mM NaCl solution in a density of 2.0×10^6 cells/ml, and beads having a 2 mm diameter were prepared using a syringe with a 22 gauge needle. The beads were incubated in a differentiation medium for articular chondrocytes (CDM, Clonetics, Inc.) charged in a 96-well round-bottomed plate (1 bead/well, manufactured by FALCON) for further 7 days. The medium was replaced by α-modified minimum essential medium containing Compound 1 (0.1 μM or 1 μM) and 10% fetal cow serum, followed by incubation for 48 hours and then for 5 hours in the co-presence of 1.5 mM sodium nitroprusside (NO generator, manufactured by Sigma). As control drugs, caspase 3 inhibitor (Z-DEVD-FMK (SEQ ID NO: 5), 100 μM, manufactured by R & D Systems, Inc.) and caspase 9 inhibitor (Z-LEHD-FMK (SEQ ID NO: 6), 100 μM, manufactured by R & D Systems, Inc.) were similarly monitored for their activities. After completion of the experiment, alginate was removed and the cell survival rate was determined by the MTT technique.
In the table, the numerical values indicate mean values (±SD) of the cell death inhibition rates as converted from the measurement data by the MTT technique. The cell survival rate after the addition of 1.5 mM sodium nitroprusside (without addition of either Compound 1 or control drug) was 31.9%.

[4] = test system: primary cardiomyocytes derived from rat neonates; experiment: Inhibitory activity against myocardial cell death induced by doxorubicin; format: cell-based; settings: doxorubicin 200 μM, 18 hours; sample added 3 hours before
Procedure: Medium 199 and a sample to be tested were added thereto, followed by incubation for 3 hours. After the incubation, doxorubicin (DOX: final concentration of 200 μM) was added to the mixture, which was incubated for further 18 hours to induce cell death. Subsequently, fetal cow serum was added thereto to reach 10%. […] Thus, the myocardial cell death inhibitory activity was examined.

## O=c1nc(-c2ccccn2)sc2ccccc12 [Compound 1, 2-(2-Pyridyl)-4H-1,3-benzothiazin-4-one]
[1]; concentration increasing mean cell count by 30% vs no compound, serum-free 4 days, mean ±SD, 3 runs
  minimum effective concentration required for inhibiting the cell death: 0.015 ± 0.011 µM
[1]; serum depletion, 4 days, WST-8 viable cell count
  myocardial cell death inhibitory activity: exhibit the activity of inhibiting myocardial cell death
[2]
  inhibition of myocardial cell death induced by statin: exhibits the activity of inhibiting myocardial cell death induced by the HMG-CoA reductase inhibitor
[3]; 0.1 μM
  Cell Death Inhibition Rate: 44.7 ± 0.9
[3]; 1 μM
  Cell Death Inhibition Rate: 57.6 ± 7.0
[3]; statement in words
  inhibitory activity against cell death of human articular chondrocytes induced by NO: has the inhibitory activity against the cell death of human articular chondrocytes induced by NO
[4]
  inhibition of myocardial cell death induced by doxorubicin: exhibits the activity of inhibiting myocardial cell death induced by doxorubicin
